The record followed here is ChEMBL document CHEMBL1221278, “Design, synthesis, and cholesterol-lowering efficacy for prodrugs of berberrubine” (Bioorg Med Chem, 2010).

Usually logP stands for a log measure of how a compound divides between an organic and an aqueous phase.

Activity calls are given as the source filed them. The rule behind the calls is not given here.

A short description of data set [1]: Lipophilicity, log P of the compound. Format: physicochemical. The following applies: octanol/water.
For a further data set, the system named is HepG2. The data set is described as follows: Upregulation of LDLR mRNA expression in human HepG2 cells by RT-PCR. Format: functional, cell-based.
Data set [2] concerns Rattus norvegicus. The data set is described as follows: Hypolipidemic activity in high fat high cholesterol diet fed Sprague-Dawley rat hyperlipidemic model assessed as reduction in total cholesterol 100 mg/kg, po qd for 28 days. Further details: scale not given: the % may be the effect or the level left.
For data set [3], the system named is Rattus norvegicus. The data set is described as follows: Hypolipidemic activity in high fat high cholesterol diet fed Sprague-Dawley rat hyperlipidemic model assessed as reduction in LDL cholesterol 100 mg/kg, po qd for 28 days. Further details: scale not given: the % may be the effect or the level left.
For data set [4], the system named is Rattus norvegicus. The data set is described as follows: Toxicity in high fat high cholesterol diet fed Sprague-Dawley rat hyperlipidemic model assessed as reduction in food intake at 100 mg/kg, po qd for 28 days. As to conditions: in vivo, 672 h.
In data set [5] the test system is Rattus norvegicus. The data set is described as follows: Toxicity in high fat high cholesterol diet fed Sprague-Dawley rat hyperlipidemic model assessed as liver of kidney function abnormalities at 100 mg/kg, po qd for 28 days. As to conditions: in vivo, 672 h.
Data set [6] relates to Rattus norvegicus. The data set is described as follows: Toxicity in high fat high cholesterol diet fed Sprague-Dawley rat hyperlipidemic model assessed as weight loss at 100 mg/kg, po qd for 28 days. The following applies: in vivo, 672 h.

`COc1ccc2cc3[n+](cc2c1O)CCc1cc2c(cc1-3)OCO2` [BERBERRUBINE CHLORIDE] registered a logP in data set [1] of -1.06.
`CCCCCCCCCC(=O)Oc1c(OC)ccc2cc3[n+](cc12)CCc1cc2c(cc1-3)OCO2`: in data set [1], the logP was 2.74. Moreover, the result with HepG2 was inactive.
The corresponding values for `CCOC(=O)Oc1c(OC)ccc2cc3[n+](cc12)CCc1cc2c(cc1-3)OCO2` are -1.18 and “inactive”.
The corresponding values for `CCCCCCCCCCCCCCCCCC(=O)Oc1c(OC)ccc2cc3[n+](cc12)CCc1cc2c(cc1-3)OCO2` are 6.98 and “inactive”.
In data set [1], `CCCCCCCCCCCC(=O)Oc1c(OC)ccc2cc3[n+](cc12)CCc1cc2c(cc1-3)OCO2` displayed a logP of 3.8. Moreover, the result in the data set with HepG2 was inactive.
The corresponding values for `COc1ccc2cc3[n+](cc2c1OC(=O)/C=C/c1ccccc1)CCc1cc2c(cc1-3)OCO2` are 1.03 and “inactive”.
As to `COc1ccc2cc3[n+](cc2c1OC)CCc1cc2c(cc1-3)OCO2.[Cl-]` [BERBERINE CHLORIDE], the Activity with Rattus norvegicus [2] turned out to be 27.4%; in the data set with Rattus norvegicus [3] it was 38%. For the same compound, the logP in data set [1] is -0.92.
In data set [1], `CCCCC(=O)Oc1c(OC)ccc2cc3[n+](cc12)CCc1cc2c(cc1-3)OCO2` had a logP of 0.1. In the data set on HepG2, the result was inactive.
`CCCCCCCC(=O)Oc1c(OC)ccc2cc3[n+](cc12)CCc1cc2c(cc1-3)OCO2` showed a logP in data set [1] of 1.69. In the data set on HepG2, the outcome was inactive.
For `COc1ccc2cc3[n+](cc2c1OC(=O)C(C)(C)C)CCc1cc2c(cc1-3)OCO2`, in that order: -0.25 and “inactive”.
The corresponding values for `CCCCCCC(=O)Oc1c(OC)ccc2cc3[n+](cc12)CCc1cc2c(cc1-3)OCO2` are 1.16 and “inactive”.
The corresponding values for `COc1ccc2cc3[n+](cc2c1OC(=O)c1ccccc1)CCc1cc2c(cc1-3)OCO2` are 0.58 and “inactive”.
For `COc1ccc2cc3[n+](cc2c1OCOC(=O)C(C)(C)C)CCc1cc2c(cc1-3)OCO2`, the logP in data set [1] is -0.06. In addition, in the data set on HepG2, the outcome was inactive.
For `CCCCCCCCCCCCCCCC(=O)Oc1c(OC)ccc2cc3[n+](cc12)CCc1cc2c(cc1-3)OCO2.[Cl-]`, the Activity is listed as 35.8% in the data set on Rattus norvegicus [2]; “Non-toxic” in the data set with Rattus norvegicus [4]; 45.5% in the data set with Rattus norvegicus [3]; “Non-toxic” in the data set on Rattus norvegicus [5]; “Non-toxic” with Rattus norvegicus [6]. Further, the logP in data set [1] turned out to be 5.91. For the same compound, in the data set on HepG2, the outcome was inactive.
In turn, `COc1ccc2cc3[n+](cc2c1OCOC(=O)c1ccccc1)CCc1cc2c(cc1-3)OCO2` came in with a logP in data set [1] of 0.97. In addition, in the data set with HepG2, the outcome was inactive.
For `CCCC(=O)Oc1c(OC)ccc2cc3[n+](cc12)CCc1cc2c(cc1-3)OCO2`, in that order: -0.43 and “inactive”.
